# In US20070082865A1, “Compositions and methods for treatment of airway hypersecretion” (Washington University, priority 2005, published 2007):
# Experiments:
# [1] = system: EGFR signaling (Akt activation); assay: Western blot of lung lysates from SeV-inoculated mice treated with EKB-569; type: in vivo, C57BL/6J mice
# Protocol: Blotting was with the indicated antibodies. Methodology is further described in Examples 1 and 2.
# (§1) C57BL/6J and Balb/cJ mice were obtained from The Jackson Laboratory (Bar Harbor, Me.) and were maintained and monitored under pathogen-free conditions for study at 7 wk of age as described previously (Walter et al. (2001); Walter et al. (2002); Tyner et al. (2006) J. Clin. Invest. 116:309-321). SeV (Fushimi Strain 52) was grown in embryonated hen eggs and harvested to provide a viral stock solution such that 5000 EID50 (50% egg infectious dose) was equivalent to 2×10^5 PFU (plaque-forming units). This inoculum or an equivalent amount of UV-inactivated SeV was delivered intranasally in 30 μl PBS under ketamine/xylazine anesthesia. Under these conditions, viral tissue levels are maximal at days 3-5 after infection and viral clearance is complete by day 12 (Walter et al. (2001); Walter et al. (2002); Tyner et al. (2006) J. Clin. Invest. 116:309-321). […] For IL-13 blockade, mice were given subcutaneous injections of soluble murine IL-13Rα2 fused to Fc (slL Example 2: EGFR inhibition decreases aspects of epithelial remodeling 13Rα2-Fc; obtained from Deborah Donaldson, Wyeth Ayerst; 200 μg/mouse in PBS) or control Fc on days 12, 14, 17, and 20 post-infection (Donaldson (1998) J. Immunol. 161, 2317).
# [2] = system: airway epithelium (ciliated, Clara and goblet cells); assay: Quantitative morphometry of airway epithelial cell types (β-tubulin, CCSP, MUC5AC immunostaining) after SeV inoculation; type: in vivo, C57BL/6J mice
# Source text: Values represent mean+SEM, and a significant difference from SeV-UV control is indicated by (*). Methodology is further described in Example 2.
# FIG. 24 is a bar graph showing quantitative analysis of β-tubulin (ciliated cells), CCSP (Clara cells), and MUC5AC (goblet cells) immunostaining in airways of mice infected with SeV and treated with slL-13 receptor antagonist (slL-13Ra2-Fc) or control IgG from on days 12, 14, 17, and 20 after inoculation. Bars=20 μm. A significant difference from corresponding IgG treatment is indicated by (*). Methodology is further described in Example 4.
# as §1
# Mouse lung was fixed by intraracheal instillation of 4% paraformaldehyde at 25-cm H2O pressure. After overnight fixation at 4° C., tissue was embedded in paraffin, and cut into 3-μm thick sections for hematoxylin/eosin or immunostaining.
# For immunostaining, tissue sections were deparaffinized, rehydrated in graded alcohol and encircled with a hydrophobic film (ImmEdge PEN, Vector laboratories, Burlingame, Calif.). […] EGFR was detected using rabbit-antihuman EGFR antibody SC-03 from Santa Cruz Biotechnology (Santa Cruz, Calif.) directed against amino acid residues 1005-1016 that are identical to corresponding sequence in murine EGFR. Phosphorylated EGFR (p-EGFR) was detected using rabbit anti-phospho-EGFR (Tyr845) antibody #2231 from Cell Signaling Technology Inc. (Beverly, Mass.) directed against phosphorylated Tyr^845. […]
# [3] = system: EGFR-dependent signals (p-EGFR, p-Akt, p-ERK1/2); assay: Western blot of EGF-stimulated mTEC cultures with or without inhibitor; type: cell-based, mouse; conditions: basic medium then EGF stimulation, inhibitor at maximal effective concentration
# [4] = system: ciliated epithelial cells in mouse tracheal epithelial cell (mTEC) cultures; assay: Ciliated cell survival in mTEC cultures (β-tubulin staining cells as % of total Hoechst-staining cells); type: cell-based; conditions: treatment for 7 days
# [5] = system: mouse tracheal epithelial cell (mTEC) cultures; assay: Apoptosis in mTEC cultures (active caspase 3, TUNEL); type: cell-based; conditions: mTEC with EGFR signaling blockade plus z-VAD-fmk (100 μM)
# Protocol: Bar=20 μm. Methodology is further described in Example 3.
# FIGS. 13A and 13B are bar graphs showing quantitative analysis of FIG. 12 for activate caspase-3 staining cells (expressed as % of total Hoechst staining cells) using treatment conditions from FIG. 12 as well as PD15305 plus zVAD-fmk (100 μM). Values represent mean+SEM, and a significant difference from vehicle alone is indicated by (*). Methodology is further described in Example 3.
# AIRWAY EPITHELIAL CELL CULTURE AND TREATMENT.
# IMMUNOCYTOCHEMISTRY. Cultured cells were washed twice with PBS at 4° C., fixed in 4% paraformaldehyde for 10 min. at 25° C., washed with PBS, and permeabilized with ethanol:acetic acid (2:1, vol/vol) for 5 min at −20° C. for TUNEL reaction or with 0.2% Triton-X for 5 min at 25° C. for immunostaining. Permeabilized cells were then washed with PBS and subjected to the TUNEL reaction (Intergen, Purchase, N.Y.) or blocked with 2% fish gel 1 h at 25° C. and incubated with rabbit anti-active caspase 3 (BD Biosciences, San Diego, Calif.), rabbit anti-EGFR (Santa Cruz Biotechnology, Santa Cruz, Calif.), rabbit anti-p-EGFR (Cell Signaling Technology, Inc., Beverly, Mass.), mouse anti-β-tubulin-IV or rabbit anti-β-tubulin (Sigma, St. Louis, Mo.) antibodies overnight at 4° C. Primary antibody binding was detected with goat anti-mouse or donkey anti-rabbit FITC or CY3 secondary antibody. […]
# [6] = SeV, EGFR inhibitor daily post-infection days 10-21, read at day 21
compound,measurement,setting,value
CCOc1cc2ncc(C#N)c(Nc3ccc(F)c(Cl)c3)c2cc1NC(=O)/C=C/CN(C)C [EKB-569],Akt activation in whole mouse lung,"[1]; 20 mg/kg by gavage daily, post-infection days 10-21, day 21 post-infection",full inhibition
same,EGFR signaling in vivo,"[1]; oral, each day from post-inoculation day 10 through day 21",blocked EGFR signaling
same,Clara cell decreases,[2]; [6],complete blockade
same,ciliated cell increases,[2]; [6],complete blockade
same,goblet cell metaplasia,[2]; [6],partial but significant inhibition
same,total number of airway epithelial cells (cytokeratin-staining cells),"[2]; post-inoculation day 21, vehicle 133±3",137±5 per mm basement membrane
COc1cccc(-c2cc(=O)c3ccccc3o2)c1N [PD98059],phosphorylation of ERK1/2,[3],blocked
same,loss of ciliated epithelial cells,[4],only treatment with LY294002 caused a similar loss
COc1cc2ncnc(Nc3cccc(Br)c3)c2cc1OC [PD153035],downstream EGFR signals,[3],blocked all downstream signals
same,loss of ciliated epithelial cells,[4],dose-dependent loss of ciliated cells
z-Val-Ala-Asp fluoromethylketone [z-VAD-fmk],TUNEL-positive cells undergoing apoptosis,[5],blocked
